Experimental data as given in patent US20090068290A1, “BIFEPRUNOX DOSES FOR TREATING SCHIZOPHRENIA” (priority 2006, published 2009).

How the values were obtained:
[1] = Pooled metabolic analysis, 6-week studies: body weight; settings: 6-week placebo controlled trials, BX total doses, RISP 6 mg, OLZ 15 mg, HAL 10 mg; for Weight, Mean (SD) change from baseline: endpoint
From the text: (§1) OBJECTIVE: To examine the metabolic effects of bifeprunox in patients with acute and stable schizophrenia.
(§2) METHODS: Metabolic data was compiled from one 6-month and four 6-week studies (i.e., a treatment period) of bifeprunox in patients with stable and acute schizophrenia, respectively. In the 6-month study, patients received bifeprunox (n=331) or placebo (PBO) (n=166). […] Metabolic evaluations included body weight, body mass index (BMI), plasma glucose and lipid profiles. Fasting glucose and lipid values were assessed in one 6-week study and in the 6-month study. Triglyceride:HDL ratio (TG:HDL) was calculated as a marker of insulin resistance. No statistical analyses were performed; only descriptive statistics are presented.

[2] = Pooled metabolic analysis, 6-week studies: lipid profile; settings: endpoint, 6-week studies, BX total, OLZ 15 mg
From the text: as §1, §2

CYP2C9, CYP3A4, CYP2D6 = experiment: Metabolism and drug interactions of bifeprunox; settings: in vivo
From the text: The objective of this study is to assess the pharmacokinetics (PK) of bifeprunox. The PK of bifeprunox in healthy subjects were investigated based on a pooled analysis of PK parameters from 21 clinical pharmacology studies. The pooled analysis included PK profiles after single and multiple doses to 132 and 399 subjects, respectively, and explored the potential effects of age, gender, body weight, and race. In addition, PK in patients with schizophrenia were investigated using a population PK approach based on samples from 376 patients in phase II studies and 434 patients in phase III studies.

[3] = Pharmacokinetic interaction of lithium and bifeprunox in healthy male subjects; format: in vivo, human
Method: Because bifeprunox may be used in combination with the mood-stabilizing drug lithium for the treatment of patients with psychoses and mood disorders, the effect of multiple doses of bifeprunox on the pharmacokinetic (PK) profile of lithium was evaluated. Lithium has a narrow therapeutic index that can complicate therapy, and serum levels greater than 1.5 mmol/L carry a greater risk of lithium toxicity than do lower levels.
METHODS: This was a single center, double-blind, randomized, placebo-controlled, parallel-design study in 48 healthy male subjects. All subjects were to receive open-label lithium (450 mg) twice daily on days 1 through 8 and, provided serum levels were stable on days 5 through 7, again on days 9 through 20. Subjects whose serum levels were stable on days 5 through 7 were included in those randomized to receive, in addition to lithium 450 mg twice daily, either placebo or a rising dose of bifeprunox (0.025-40 mg) once daily on days 9 through 17, and placebo or bifeprunox 40 mg on days 18 through 21. Only a single morning dose of lithium 450 mg was administered on day 21. Lithium, steady-state Cmax, AUC over the dosing interval (0-t), and renal clearance (CL-R) values were compared between the bifeprunox and placebo groups using ANCOVA with baseline values of lithium measured on day 8 as covariate.

[4] = non-fasting, RISP 6 mg, HAL 10 mg
[5] = lithium 450 mg twice daily with bifeprunox up to 40 mg once daily, healthy male subjects

SMILES	≧7% weight increase, (%) ([1]; baseline BMI 18.5-25 kg/m^2)	≧7% weight decrease, (%) ([1]; baseline BMI All)	≧7% weight increase, (%) ([1]; baseline BMI All)	Weight, Mean (SD) change from baseline ([1]; baseline BMI 18.5-25 kg/m^2)	Weight, Mean (SD) change from baseline ([1]; baseline BMI <18.5 kg/m^2)	Weight, Mean (SD) change from baseline ([1]; baseline BMI >25-30 kg/m^2)	Weight, Mean (SD) change from baseline ([1]; baseline BMI >30 kg/m^2)	Weight, Mean (SD) change from baseline ([1]; baseline BMI All)	Total cholesterol, Mean change (SD) [2, 4]	Triglycerides, Mean change (SD) [2, 4]	≧7% weight increase, (%) ([1]; baseline BMI <18.5 kg/m^2)	≧7% weight increase, (%) ([1]; baseline BMI >25-30 kg/m^2)	≧7% weight increase, (%) ([1]; baseline BMI >30 kg/m^2)	PK of narrow therapeutic index compound on co-administration with bifeprunox (CYP2C9, CYP3A4, CYP2D6)	further results
O=C(CCCN1CCC(O)(c2ccc(Cl)cc2)CC1)c1ccc(F)cc1 [HAL]	7.1%	2.0%	4.0%	−0.0 (2.2) kg	1.4 (1.3) kg	−1.1 (1.8) kg	0.4 (2.1) kg	−0.1 (2.1) kg	0.1 (0.7) mg/dL	−2.7 (0.6) mg/dL	–	–	–	–	≧7% weight decrease, (%) ([1]; baseline BMI 18.5-25 kg/m^2): 3.6%
Cc1cc2c(s1)Nc1ccccc1N=C2N1CCN(C)CC1 [OLZ]	22.7%	–	–	2.1 (2.7) kg	1.0 (1.9) kg	2.3 (2.5) kg	3.3 (4.0) kg	2.4 (3.1) kg	−0.7 (1.0) mg/dL	24.6 (1.3) mg/dL	18.8%	13.2%	14.6%	–	Fasting HDL, Mean change (SD) ([2]; fasting): −1.4 (9.2) mg/dL; Fasting HDL, Percentage mean change ([2]; fasting): −2.9%; Fasting LDL, Mean change (SD) ([2]; fasting): −0.3 (28.6) mg/dL; Fasting LDL, Percentage mean change ([2]; fasting): −0.3%; Total cholesterol, Mean change (SD) ([2]; fasting): −4.0 (37.3) mg/dL; Total cholesterol, Percentage mean change ([2]; fasting): −2.0%; Triglycerides, Mean change (SD) ([2]; fasting): −9.2 (90.4) mg/dL; Triglycerides, Percentage mean change ([2]; fasting): −5.3%
Cc1nc2n(c(=O)c1CCN1CCC(c3noc4cc(F)ccc34)CC1)CCCC2 [RISP]	7.3%	0.4%	9.8%	1.5 (2.2) kg	0.9 (2.3) kg	2.1 (3.2) kg	1.6 (4.2) kg	1.7 (3.3) kg	−2.6 (0.8) mg/dL	−7.4 (1.4) mg/dL	20.0%	13.3%	8.5%	–	≧7% weight decrease, (%) ([1]; baseline BMI >30 kg/m^2): 1.2%
[Li] [lithium]	–	–	–	–	–	–	–	–	–	–	–	–	–	did not affect the PK of these compounds to any relevant extent	effect of co-administration of multiple doses of bifeprunox on lithium steady-state pharmacokinetics ([3]; human, in vivo): no clinically relevant effect; lithium renal clearance CL-R, treatment ratio (bifeprunox vs placebo group, geometric least square means) [3, 5]: 0.94; lithium steady-state AUC(0-t), treatment ratio (bifeprunox vs placebo group, geometric least square means) [3, 5]: 1.13; lithium steady-state Cmax, treatment ratio (bifeprunox vs placebo group, geometric least square means) [3, 5]: 1.11
CC(=O)CC(c1ccccc1)c1c(O)c2ccccc2oc1=O (centres unmarked) [warfarin, reference compound]	–	–	–	–	–	–	–	–	–	–	–	–	–	did not affect the PK of these compounds to any relevant extent	–
